{"source": "patent US20110281815A1", "about": "“Parental formulations of gemcitabine derivatives” (CLAVIS PHARMA AS, priority 2009, published 2011)", "key": {"[1]": {"conditions": "rapid deamination to dFdU; cited from earlier work"}, "[2]": {"experiment": "formulation of elacytarabine model substance with egg PC/egg PG", "format": "physicochemical", "protocol": "(§1) It was investigated if the unexpectedly high concentration (15 mg/mL-60 mg/mL) of the active compound achieved in the formulations described in Examples 1 through 7, and under section 6, Manufacture of the Formulation, was unique to a chemical compound as shown in Formula (I) or if the method was of a more general nature. The structurally similar compound elacytarabine (ara-C-5′-elaidic acid ester) as shown in Formula (II) was used as a related model substance. This model substance contains the same 5′-elaidic acid ester moiety as found in Formula (I) (R1=R3=H, R2=elaidate), and the same cytosine nucleoside ring system. The minor difference between the compounds described in Formula (I) and Formula (II) is the substitution at the 2′ position of the ribose ring for Formula (I) contains geminal fluorines, while Formula (II) contains H and OH.\nIt is concluded that the Formula I compound provides unexpectedly unique attributes of high loading and stability to the described lipid based formulations."}, "[3]": {"experiment": "drug load / particle formation of gemcitabine-5′-elaidate in alternative formulations", "format": "physicochemical", "protocol": "Particle formation without the use of phospholipids was not successful. Gemcitabine-5′-elaidic acid ester was dissolved in ethanol in a weight ratio of 1:24. The mixture was stirred until all solid material was dissolved.\nThe ethanol solution was thereafter injected into a […] with vigorous mixing. The weight ratio of ethanol solution to the glycerol solution was 1:12. The mixture appeared to contain conglomerates as determined by visual inspection.\nMixed micellar formulations with phospholipids and non-ionic surfactants were not successful in preparation of high drug load formulations. Mixed micelles were prepared using a 1:1 weight ratio of egg lecithin:Tween 20 for a final concentration of 50 mg/mL dissolved solids.\nLiposomal formulations with egg lecithin and oleic acid were not successful in preparation of high drug load formulations. Liposomes were prepared by means of dissolution of gemcitabine-5′-elaidate, egg lecithin, and oleic acid in a molar ratio of 1:14.4:2 in ethanol. The solvent was evaporated and the residual solids dispersed into 2.6% glycerol in water using an Ultraturrax followed by high pressure homogenization. Stable formulations could be achieved up to 3 mg/mL gemcitabine-5′-elaidate.\nas §1"}, "[4]": {"conditions": "human, in vivo", "protocol": "(§2) The intravenous formulation of gemcitabine-5′-elaidic acid ester as described in Example 1 was used in a phase I, first in human clinical study. The aims of this study were to determine the safety, toxicity, MTD (Maximum Tolerated Dose) and the RD (Recommended Dose) of gemcitabine-5′-elaidic acid ester, to describe its pharmacokinetic (PK) characteristics, and to assess its preliminary antitumor activity.\n(§3) Gemcitabine-5′-elaidic acid ester was administered on days (d) 1, 8 and 15 every 4 week by a 30 min IV infusion. The dose range was from 30 to 1600 mg/m2/d. 43 patients were enrolled and the RD was established at 1250 mg/m^2/d. […] Stabilisation of disease (>3 months) reported in 7 patients (pancreas, colon and ovarian cancer) lasting between 3.5 to >8 months."}, "[5]": {"test_system": "pancreas, colon and ovarian cancer", "experiment": "phase I clinical study: preliminary antitumor activity", "format": "in vivo, human", "protocol": "as §2, §3"}, "[6]": {"conditions": "human, in vivo", "protocol": "as §2, §3\nGemcitabine-5′-elaidic acid ester was detected in plasma up to 24 hrs post-dosing. […] Urinary excretion of the main metabolite, dFdU, during the first 24 hrs was 48-71% of the dose.", "remark": "listed apart in the source"}, "[7]": {"conditions": "buffer, pH 7.4"}}, "data": [{"compound": "Nc1ccn([C@@H]2O[C@H](CO)[C@@H](O)C2(F)F)c(=O)n1", "note": "[gemcitabine, 2′,2′-difluorodeoxy-cytidine]", "values": [{"measurement": "half-life of gemcitabine in plasma", "setting": "[1]", "value": "approximately 10 minutes"}]}, {"compound": "CCCCCCCC/C=C/CCCCCCCC(=O)OC[C@H]1O[C@@H](n2ccc(N)nc2=O)[C@@H](O)[C@@H]1O", "note": "[Elacytarabine, ara-C-5′-elaidic acid ester]", "values": [{"measurement": "Particle size (Z-.avg)", "setting": "[2]; Egg PC/egg PG, 10 mg/mL", "value": "(Z-.avg) 97 nm"}, {"measurement": "outcome after filtration", "setting": "[2]; Egg PC/egg PG, 10 mg/mL", "value": "Large lipid agglomerates"}, {"measurement": "outcome upon storage", "setting": "[2]; Egg PC/egg PG, 15 mg/mL, storage at 2-8° C.", "value": "Precipitation"}, {"measurement": "Final content", "setting": "[2]; Egg PC/egg PG, elacytarabine concentration 10 mg/mL", "value": "Final content 8 mg/ml."}, {"measurement": "Final content", "setting": "[2]; Egg PC/egg PG, elacytarabine concentration 15 mg/mL", "value": 12, "unit": "mg/mL"}, {"measurement": "formulation outcome", "setting": "[2]; Egg PC/egg PG, elacytarabine concentration 20 mg/mL, during homogenisation", "value": "Precipitation during"}, {"measurement": "formulation outcome", "setting": "[2]; Egg PC/egg PG, elacytarabine concentration 30 mg/mL, during solvent injection", "value": "Precipitation"}, {"measurement": "formulation outcome", "setting": "[2]; Formula II compound included in excess of 20 mg/mL", "value": "precipitation during processing"}, {"measurement": "formulation outcome on storage", "setting": "[2]; target concentrations of less than 15 mg/mL, precipitation and agglomeration", "value": "unstable during storage"}]}, {"compound": "CCCCCCCC/C=C/CCCCCCCC(=O)OC[C@H]1O[C@@H](n2ccc(N)nc2=O)C(F)(F)[C@@H]1O", "note": "[gemcitabine-5′-elaidic acid ester]", "values": [{"measurement": "maximal concentration of gemcitabine-5′-elaidate in mixed micelles", "setting": "[3]; 1:1 egg lecithin:Tween 20, 50 mg/mL dissolved solids", "value": "less than 5 mg/mL"}, {"measurement": "concentration up to which stable liposomal formulations could be achieved", "setting": "[3]; egg lecithin and oleic acid liposomes, 2.6% glycerol in water", "value": "up to 3 mg/mL"}, {"measurement": "maximal concentration of gemcitabine-5′-elaidate in mixed micelles", "setting": "[3]; egg lecithin with glycholic acid as surfactant", "value": 2, "unit": "mg/mL"}, {"measurement": "particle formation without phospholipids", "setting": "[3]; ethanol solution injected into water for injection, homogenization attempted", "value": "not capable of forming stable particles"}, {"measurement": "most frequent toxicities", "setting": "[4]", "value": "nausea, fatigue, vomiting and anorexia"}, {"measurement": "RD (Recommended Dose)", "setting": "[4]; iv", "value": 1250, "unit": "mg/m^2/d"}, {"measurement": "recommended dose for intravenous administration", "setting": "[4]; iv", "value": 1250, "unit": "mg/m^2"}, {"measurement": "stabilisation of disease (>3 months), number of patients", "setting": "[5]; 43 patients enrolled, pancreas, colon and ovarian cancer", "value": 7, "unit": "patients"}, {"measurement": "reduction in tumor mass", "setting": "[5]; one patient with ovarian cancer", "value": 28.3, "unit": "%"}, {"measurement": "AUC for gemcitabine (dFdC) exposure versus intravenous gemcitabine at comparable dose levels", "setting": "[6]", "value": "significantly higher"}, {"measurement": "time detected in plasma post-dosing", "setting": "[6]; iv", "value": "up to 24 hrs"}, {"measurement": "half life (hydrolytic degradation)", "setting": "[7]", "value": "approximately 30 minutes"}]}]}
